IC50 data for five molecules are collected here from patent US20220289724A1, “KIF18A INHIBITORS” (AMGEN INC., priority 2019, published 2022).

The target of the assay is T1, Recombinant human KIF18A (1-467 His-tagged) protein (Homo sapiens, UniProt Q8NI77).
T1 construct: Recombinant human KIF18A (1-467 His-tagged) protein; His; made in house
Kind of assay: KIF18A Enzyme Assay: microtubule-stimulated ATPase activity assay (ADP-Glo). In kind it is biochemical. As to conditions: KIF18A protein 30 nM, 30 μg/mL pig microtubules, ATP at Km 75 μM, ADP-Glo luminescence, RT. The text has this:
KIF18A Enzyme Assay: Microtubule-stimulated ATPase activity assay is used to measure KIF18A enzyme activity after treatment with compound. Compounds were 2-fold serially diluted in DMSO (Sigma Inc) over 22-point concentration range. Recombinant human KIF18A (1-467 His-tagged) protein was expressed using a baculovirus system and purified by affinity chromatography by Amgen Inc. Concentrations of KIF18A protein, microtubules (MT), and ATP in the reaction were optimized for standardized homogenous enzyme assay using ADP-Glorm Kinase/ATPase Assay Kit (Promega Inc). The assay measures ADP formed from the ATPase reaction. […] Concentration-response curve-fitting and IC50 determination was performed using Genedata Screener Software (Standard 15.0.1, Genedata Inc) with a four-parameter logistic regression fit model.
Table A provides data for compounds exemplified in the present application and priority document thereof, as representative compounds of the present invention, as follows: chemical name (as named by either ACD software or ChemDraw (Professional 15.0)) and biological data (IC50 in μM). Ex. […] refers to Example No.
(In general: ADP-Glo turns the ADP formed in a reaction into a luminescent signal.)

A word on the IC50: it is the concentration at which inhibition is half-maximal.

T1 sequence (Q8NI77 1-467): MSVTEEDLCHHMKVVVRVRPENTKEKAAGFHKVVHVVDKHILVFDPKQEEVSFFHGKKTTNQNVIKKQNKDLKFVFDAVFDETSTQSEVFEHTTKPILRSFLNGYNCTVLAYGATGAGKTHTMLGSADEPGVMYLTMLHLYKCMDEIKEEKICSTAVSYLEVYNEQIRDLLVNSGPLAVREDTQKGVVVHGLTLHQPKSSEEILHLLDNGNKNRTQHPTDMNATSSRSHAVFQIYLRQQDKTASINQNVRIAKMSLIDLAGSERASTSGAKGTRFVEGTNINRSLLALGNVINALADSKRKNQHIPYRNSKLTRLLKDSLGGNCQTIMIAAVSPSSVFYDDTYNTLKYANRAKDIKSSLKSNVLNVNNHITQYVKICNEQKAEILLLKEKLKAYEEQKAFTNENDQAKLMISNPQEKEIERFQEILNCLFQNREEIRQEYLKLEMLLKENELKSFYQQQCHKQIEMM
T1 sequence (P02550 whole entry partner): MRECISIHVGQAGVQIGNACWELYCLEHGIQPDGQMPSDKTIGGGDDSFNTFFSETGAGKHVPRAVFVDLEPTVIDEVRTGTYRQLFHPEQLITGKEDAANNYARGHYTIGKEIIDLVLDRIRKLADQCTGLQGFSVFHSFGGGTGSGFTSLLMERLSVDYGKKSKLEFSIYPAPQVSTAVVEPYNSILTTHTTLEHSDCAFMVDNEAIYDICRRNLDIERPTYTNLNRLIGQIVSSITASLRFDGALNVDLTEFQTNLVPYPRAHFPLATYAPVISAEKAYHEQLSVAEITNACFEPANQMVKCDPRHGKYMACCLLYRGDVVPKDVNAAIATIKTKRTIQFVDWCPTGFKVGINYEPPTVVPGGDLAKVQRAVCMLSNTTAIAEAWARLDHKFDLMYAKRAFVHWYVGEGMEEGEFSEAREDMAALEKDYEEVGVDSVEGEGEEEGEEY
T1 sequence (P02554 whole entry partner): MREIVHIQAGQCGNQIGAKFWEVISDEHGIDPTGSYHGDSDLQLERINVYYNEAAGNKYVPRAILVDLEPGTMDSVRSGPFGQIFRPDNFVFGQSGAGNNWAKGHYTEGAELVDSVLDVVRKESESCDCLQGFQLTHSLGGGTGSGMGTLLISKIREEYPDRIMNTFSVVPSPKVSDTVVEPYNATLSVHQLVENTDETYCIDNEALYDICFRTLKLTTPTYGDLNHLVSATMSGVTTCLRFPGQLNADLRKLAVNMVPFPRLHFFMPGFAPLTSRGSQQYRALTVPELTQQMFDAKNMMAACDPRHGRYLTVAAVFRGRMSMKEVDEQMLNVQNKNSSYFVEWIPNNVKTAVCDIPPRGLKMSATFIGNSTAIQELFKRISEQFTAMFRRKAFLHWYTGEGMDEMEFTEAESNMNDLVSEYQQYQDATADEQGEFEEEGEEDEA

In the case of `C[S@@](=N)(=O)c1cccc(NC(=O)c2ccc(NS(=O)(=O)CCO)cc2N2CCC3(CC2)CC3)c1` [Example 113-1, (R)-4-((2-hydroxyethyl)sulfonamido)-N-(3-(S-methylsulfonimidoyl)phenyl)-2-(6-azaspiro[2.5]octan-6-yl)benzamide], the concentration for half-maximal inhibition (IC50) is 429 nM.

As to `C[S@](=N)(=O)c1cccc(NC(=O)c2ccc(NS(=O)(=O)CCO)cc2N2CCC3(CC2)CC3)c1` [Example 113-2, (S)-4-((2-hydroxyethyl)sulfonamido)-N-(3-(S-methylsulfonimidoyl)phenyl)-2-(6-azaspiro[2.5]octan-6-yl)benzamide], the half-maximal inhibitory concentration (IC50) came to 488 nM. As for `CC(C)(C)[S@@](=N)(=O)c1cccc(NC(=O)c2ccc(NS(=O)(=O)CCO)cc2N2CCC3(CC2)CC3)c1` [Example 114-1, (R)-4-((2-hydroxyethyl)sulfonamido)-N-(3-(2-methylpropan-2-ylsulfonimidoyl)phenyl)-2-(6-azaspiro[2.5]octan-6-yl)benzamide], the IC50 came out at 194 nM. For `CC(C)(C)[S@](=N)(=O)c1cccc(NC(=O)c2ccc(NS(=O)(=O)CCO)cc2N2CCC3(CC2)CC3)c1` [Example 114-2, (S)-4-((2-hydroxyethyl)sulfonamido)-N-(3-(2-methylpropan-2-ylsulfonimidoyl)phenyl)-2-(6-azaspiro[2.5]octan-6-yl)benzamide] the value was 323 nM; for `O=C(Nc1ccc(NS(=O)(=O)CCO)cc1N1CCC2(CC1)CC2)c1cccc(N2CCCCC2)c1` [Example 115, N-(4-((2-Hydroxyethyl)sulfonamido)-2-(6-azaspiro[2.5]octan-6-yl)phenyl)-3-(piperidin-1-yl)benzamide], 26 nM.
